Data: ChEMBL document CHEMBL3885861, “Open TG-GATES”

Species: Rattus norvegicus
Assay: Open TG-GATES - Regimen: Daily Repeat
Assay type: toxicity, organism-based, Sprague-Dawley
Design: regimen Daily Repeat, gender Male, age 6 weeks
Details: in vivo, po, route gavage; for APTT / Bas / Eos / Fbg / Hb / Ht / Lym / MCH / MCHC / MCV / Mono / Neu / PT / Plat / RBC / Ret / WBC: tissue Blood; for KIDNEY_L / KIDNEY_R / KIDNEY_TOTAL: tissue Kidney; for LIVER: tissue Liver; for A/G / ALP / ALT / AST / BUN / CRE / Ca / Cl / DBIL / GLC / IP / LDH / Na / PL / RALB / TBIL / TC / TG / TP / gamma-GTP: tissue Plasma
[1] = 0 mg/kg, 72 h, dose level Control, time 3 day
[2] = 0 mg/kg, […], dose level Control, time 7 day
[3] = 0 mg/kg, […], dose level Control, time 14 day
[4] = 0 mg/kg, […], dose level Control, time 28 day
[5] = 100 mg/kg, 72 h, dose level Low, time 3 day
[6] = 100 mg/kg, […], dose level Low, time 7 day
[7] = 100 mg/kg, […], dose level Low, time 14 day
[8] = 100 mg/kg, […], dose level Low, time 28 day

NC(N)=Nc1nc(CSCCC(N)=NS(N)(=O)=O)cs1 [FAMOTIDINE]
TERMINAL_BW [1]: 227 g
APTT [1]: 19.5 s
Bas [1]: 0%
Eos [1]: 1%
Fbg [1]: 221.4 mg/dL
Hb [1]: 13.5 g/dL
Ht [1]: 37.4%
Lym [1]: 73.8%
MCH [1]: 22.4 pg
MCHC [1]: 36.1%
MCV [1]: 61.9 fL
Mono [1]: 3.2%
Neu [1]: 20.6%
PT [1]: 11.8 s
Plat [1]: 125.1 x10_4/uL
RBC [1]: 604.6 x10_4/ul
Ret [1]: 5.7%
WBC [1]: 75.1 x10_2/uL
KIDNEY_L [1]: 1 g
KIDNEY_R [1]: 1 g
KIDNEY_TOTAL [1]: 2 g
LIVER [1]: 10.4 g
A/G [1]: 1.5
ALP [1]: 999.6 IU/L
ALT [1]: 31.4 IU/L
AST [1]: 64.2 IU/L
BUN [1]: 13.8 mg/dL
CRE [1]: 0.4 mg/dL
Ca [1]: 10.7 mg/dL
Cl [1]: 103.2 meq/L
DBIL [1]: 0.086 mg/dL
GLC [1]: 190.6 mg/dL
IP [1]: 7.2 mg/dL
LDH [1]: 194 IU/L
Na [1]: 139.8 meq/L
PL [1]: 139.6 mg/dL
RALB [1]: 3.4 g/dL
TBIL [1]: 0.1 mg/dL
TC [1]: 76.6 mg/dL
TG [1]: 78.4 mg/dL
TP [1]: 5.5 g/dL
gamma-GTP [1]: 1 IU/L
TERMINAL_BW [2]: 257.4 g
TERMINAL_BW [3]: 314.4 g
TERMINAL_BW [4]: 376 g
APTT [2]: 20.1 s
Bas [2]: 0%
Eos [2]: 0.8%
Fbg [2]: 230 mg/dL
Hb [2]: 13.7 g/dL
Ht [2]: 38.3%
Lym [2]: 80.4%
MCH [2]: 22.2 pg
MCHC [2]: 35.8%
MCV [2]: 62 fL
Mono [2]: 2.4%
Neu [2]: 14.8%
PT [2]: 11.8 s
Plat [2]: 126.2 x10_4/uL
RBC [2]: 618.2 x10_4/ul
Ret [2]: 5%
WBC [2]: 82.2 x10_2/uL
APTT [3]: 22.3 s
Bas [3]: 0%
Eos [3]: 1%
Fbg [3]: 229.4 mg/dL
Hb [3]: 14.3 g/dL
Ht [3]: 41.9%
Lym [3]: 81.8%
MCH [3]: 20.8 pg
MCHC [3]: 34.1%
MCV [3]: 60.9 fL
Mono [3]: 1.6%
Neu [3]: 14.2%
PT [3]: 12.3 s
Plat [3]: 118.4 x10_4/uL
RBC [3]: 689 x10_4/ul
Ret [3]: 4.5%
WBC [3]: 112.3 x10_2/uL
APTT [4]: 21.3 s
Bas [4]: 0%
Eos [4]: 1%
Fbg [4]: 233.6 mg/dL
Hb [4]: 15.4 g/dL
Ht [4]: 43.5%
Lym [4]: 80.8%
MCH [4]: 20 pg
MCHC [4]: 35.3%
MCV [4]: 56.6 fL
Mono [4]: 2.2%
Neu [4]: 14.6%
PT [4]: 12.2 s
Plat [4]: 98.4 x10_4/uL
RBC [4]: 769 x10_4/ul
Ret [4]: 2.3%
WBC [4]: 84.1 x10_2/uL
KIDNEY_L [2]: 1.1 g
KIDNEY_R [2]: 1.1 g
KIDNEY_TOTAL [2]: 2.2 g
KIDNEY_L [3]: 1.3 g
KIDNEY_R [3]: 1.2 g
KIDNEY_TOTAL [3]: 2.5 g
KIDNEY_L [4]: 1.4 g
KIDNEY_R [4]: 1.4 g
KIDNEY_TOTAL [4]: 2.8 g
LIVER [2]: 12.2 g
LIVER [3]: 14 g
LIVER [4]: 15.1 g
A/G [2]: 1.5
ALP [2]: 1109 IU/L
ALT [2]: 39.6 IU/L
AST [2]: 71.4 IU/L
BUN [2]: 16.6 mg/dL
CRE [2]: 0.4 mg/dL
Ca [2]: 10.7 mg/dL
Cl [2]: 102.8 meq/L
DBIL [2]: 0.094 mg/dL
GLC [2]: 200.6 mg/dL
IP [2]: 7.5 mg/dL
LDH [2]: 176.2 IU/L
Na [2]: 140.6 meq/L
PL [2]: 156.6 mg/dL
RALB [2]: 3.5 g/dL
TBIL [2]: 0.2 mg/dL
TC [2]: 78 mg/dL
TG [2]: 101.8 mg/dL
TP [2]: 5.7 g/dL
gamma-GTP [2]: 0.8 IU/L
A/G [3]: 1.5
ALP [3]: 794.6 IU/L
ALT [3]: 33.4 IU/L
AST [3]: 62 IU/L
BUN [3]: 15.8 mg/dL
CRE [3]: 0.5 mg/dL
Ca [3]: 10.8 mg/dL
Cl [3]: 103.2 meq/L
DBIL [3]: 0.096 mg/dL
GLC [3]: 208 mg/dL
IP [3]: 7.2 mg/dL
LDH [3]: 153.2 IU/L
Na [3]: 140.4 meq/L
PL [3]: 146.6 mg/dL
RALB [3]: 3.4 g/dL
TBIL [3]: 0.2 mg/dL
TC [3]: 75 mg/dL
TG [3]: 96.4 mg/dL
TP [3]: 5.7 g/dL
gamma-GTP [3]: 1.4 IU/L
A/G [4]: 1.3
ALP [4]: 664.6 IU/L
ALT [4]: 32.4 IU/L
AST [4]: 59 IU/L
BUN [4]: 18.6 mg/dL
CRE [4]: 0.6 mg/dL
Ca [4]: 10.2 mg/dL
Cl [4]: 103.6 meq/L
DBIL [4]: 0.07 mg/dL
GLC [4]: 217.4 mg/dL
IP [4]: 6.7 mg/dL
LDH [4]: 123 IU/L
Na [4]: 141 meq/L
PL [4]: 141.8 mg/dL
RALB [4]: 3.5 g/dL
TBIL [4]: 0.1 mg/dL
TC [4]: 74.6 mg/dL
TG [4]: 82.8 mg/dL
TP [4]: 6.1 g/dL
gamma-GTP [4]: 1 IU/L
TERMINAL_BW [5]: 224.5 g
APTT [5]: 19.8 s
Bas [5]: 0%
Eos [5]: 1%
Fbg [5]: 225.2 mg/dL
Hb [5]: 13.3 g/dL
Ht [5]: 37.3%
Lym [5]: 78.4%
MCH [5]: 22.1 pg
MCHC [5]: 35.6%
MCV [5]: 62.1 fL
Mono [5]: 2.6%
Neu [5]: 15.6%
PT [5]: 12 s
Plat [5]: 124.1 x10_4/uL
RBC [5]: 600.6 x10_4/ul
Ret [5]: 5.7%
WBC [5]: 87.5 x10_2/uL
KIDNEY_L [5]: 1 g
KIDNEY_R [5]: 1 g
KIDNEY_TOTAL [5]: 2 g
LIVER [5]: 10.2 g
A/G [5]: 1.6
ALP [5]: 1126.4 IU/L
ALT [5]: 30.2 IU/L
AST [5]: 63.6 IU/L
BUN [5]: 16.6 mg/dL
CRE [5]: 0.4 mg/dL
Ca [5]: 10.7 mg/dL
Cl [5]: 102.8 meq/L
DBIL [5]: 0.086 mg/dL
GLC [5]: 190.4 mg/dL
IP [5]: 7.2 mg/dL
LDH [5]: 190.6 IU/L
Na [5]: 139 meq/L
PL [5]: 136.8 mg/dL
RALB [5]: 3.3 g/dL
TBIL [5]: 0.1 mg/dL
TC [5]: 73.8 mg/dL
TG [5]: 63.2 mg/dL
TP [5]: 5.5 g/dL
gamma-GTP [5]: 1.2 IU/L
TERMINAL_BW [6]: 259.3 g
TERMINAL_BW [7]: 310.4 g
TERMINAL_BW [8]: 389.2 g
APTT [6]: 20.9 s
Bas [6]: 0%
Eos [6]: 1%
Fbg [6]: 217.6 mg/dL
Hb [6]: 13.5 g/dL
Ht [6]: 37.6%
Lym [6]: 78.6%
MCH [6]: 22 pg
MCHC [6]: 35.9%
MCV [6]: 61.5 fL
Mono [6]: 2.8%
Neu [6]: 16.4%
PT [6]: 12.1 s
Plat [6]: 116.2 x10_4/uL
RBC [6]: 612 x10_4/ul
Ret [6]: 5.2%
WBC [6]: 95.1 x10_2/uL
APTT [7]: 22.2 s
Bas [7]: 0%
Eos [7]: 0.6%
Fbg [7]: 217.4 mg/dL
Hb [7]: 14.4 g/dL
Ht [7]: 41.5%
Lym [7]: 77.4%
MCH [7]: 20.9 pg
MCHC [7]: 34.8%
MCV [7]: 60 fL
Mono [7]: 2.4%
Neu [7]: 17.8%
PT [7]: 12.6 s
Plat [7]: 111.6 x10_4/uL
RBC [7]: 691.8 x10_4/ul
Ret [7]: 4%
WBC [7]: 94.5 x10_2/uL
APTT [8]: 21.5 s
Bas [8]: 0%
Eos [8]: 1.6%
Fbg [8]: 219.4 mg/dL
Hb [8]: 15.5 g/dL
Ht [8]: 43.7%
Lym [8]: 81.2%
MCH [8]: 19.4 pg
MCHC [8]: 35.5%
MCV [8]: 54.9 fL
Mono [8]: 1.6%
Neu [8]: 14.2%
PT [8]: 12.8 s
Plat [8]: 96.6 x10_4/uL
RBC [8]: 796 x10_4/ul
Ret [8]: 2.2%
WBC [8]: 90.2 x10_2/uL
KIDNEY_L [6]: 1.1 g
KIDNEY_R [6]: 1.1 g
KIDNEY_TOTAL [6]: 2.2 g
KIDNEY_L [7]: 1.2 g
KIDNEY_R [7]: 1.2 g
KIDNEY_TOTAL [7]: 2.5 g
KIDNEY_L [8]: 1.3 g
KIDNEY_R [8]: 1.4 g
KIDNEY_TOTAL [8]: 2.7 g
LIVER [6]: 12.4 g
LIVER [7]: 13.4 g
LIVER [8]: 15.7 g
A/G [6]: 1.5
ALP [6]: 940.8 IU/L
ALT [6]: 30.4 IU/L
AST [6]: 67 IU/L
BUN [6]: 16.4 mg/dL
CRE [6]: 0.4 mg/dL
Ca [6]: 10.7 mg/dL
Cl [6]: 103 meq/L
DBIL [6]: 0.098 mg/dL
GLC [6]: 182.8 mg/dL
IP [6]: 7 mg/dL
LDH [6]: 205.2 IU/L
Na [6]: 140.8 meq/L
PL [6]: 151 mg/dL
RALB [6]: 3.4 g/dL
TBIL [6]: 0.2 mg/dL
TC [6]: 78.6 mg/dL
TG [6]: 98.2 mg/dL
TP [6]: 5.6 g/dL
gamma-GTP [6]: 1.2 IU/L
A/G [7]: 1.5
ALP [7]: 918.4 IU/L
ALT [7]: 38 IU/L
AST [7]: 64.4 IU/L
BUN [7]: 15.2 mg/dL
CRE [7]: 0.5 mg/dL
Ca [7]: 10.5 mg/dL
Cl [7]: 104 meq/L
DBIL [7]: 0.096 mg/dL
GLC [7]: 196.2 mg/dL
IP [7]: 7 mg/dL
LDH [7]: 181 IU/L
Na [7]: 140.6 meq/L
PL [7]: 141.2 mg/dL
RALB [7]: 3.3 g/dL
TBIL [7]: 0.2 mg/dL
TC [7]: 67 mg/dL
TG [7]: 111.4 mg/dL
TP [7]: 5.6 g/dL
gamma-GTP [7]: 1.6 IU/L
A/G [8]: 1.3
ALP [8]: 577.4 IU/L
ALT [8]: 31.8 IU/L
AST [8]: 59.6 IU/L
BUN [8]: 15.8 mg/dL
CRE [8]: 0.6 mg/dL
Ca [8]: 9.9 mg/dL
Cl [8]: 103.4 meq/L
DBIL [8]: 0.074 mg/dL
GLC [8]: 241.8 mg/dL
IP [8]: 7.1 mg/dL
LDH [8]: 132.8 IU/L
Na [8]: 140.8 meq/L
PL [8]: 121.2 mg/dL
RALB [8]: 3.3 g/dL
TBIL [8]: 0.1 mg/dL
TC [8]: 57.8 mg/dL
TG [8]: 91 mg/dL
TP [8]: 5.9 g/dL
gamma-GTP [8]: 1.2 IU/L
